{"source": "patent US20240166652A1", "about": "“MODULATORS OF THE INTEGRATED STRESS PATHWAY” (Calico Life Sciences LLC, priority 2017, published 2024)", "data": [{"system": "ATF4 luciferase reporter in HEK293T cells", "test": "ATF4-Luc assay (ATF4 luciferase reporter, tunicamycin-treated HEK293T cells)", "assay_type": "cell-based, human", "conditions": "HEK293T cells carrying the ATF4 luciferase reporter, 1 μg/mL tunicamycin, 7 hours", "units": {"EC50": "nM"}, "values": [{"smiles": "O=C(COc1ccc(F)c(F)c1)NC12CCC(NC(=O)COc3ccc(F)c(F)c3)(CC1)[C@@H](O)C2", "note": "[Compound 683, N,N′-[(2S)-2-hydroxybicyclo[2.2.2]octane-1,4-diyl]bis[2-(3,4-difluorophenoxy)acetamide]]", "EC50": "< 10"}]}, {"system": "ATF4 luciferase reporter in HEK293T cells", "test": "ATF4-Luc assay (ATF4 luciferase reporter, tunicamycin-treated HEK293T cells)", "assay_type": "cell-based, human", "conditions": "Homo sapiens, HEK-293T; HEK293T cells carrying the ATF4 luciferase reporter, 1 μg/mL tunicamycin, 7 hours", "units": {"EC50": "nM"}, "values": [{"smiles": "O=C(COCc1ccc(OC(F)F)nc1)NC12CC(NC(=O)COc3ccc(Cl)c(F)c3)(C1)C2", "note": "[Compound 279, 2-(4-chloro-3-fluorophenoxy)-N-[3-(2-{[6-(difluoromethoxy)pyridin-3-yl]methoxy}acetamido)bicyclo[1.1.1]pentan-1-yl]acetamide]", "EC50": "250 to 500"}, {"smiles": "CN(CC(=O)NC12CC(NC(=O)COc3ccc(Cl)c(F)c3)(C1)C2)c1ccc(Cl)cc1", "note": "[Compound 201, N-{3-[2-(4-chloro-3-fluorophenoxy)acetamido]bicyclo[1.1.1]pentan-1-yl}-N^2-(4-chlorophenyl)-N^2-methylglycinamide]", "EC50": "500 to 2000"}, {"smiles": "O=C(COc1ccc(Cl)c(F)c1)NC12CCC(NC(=O)COc3nc4ccccc4s3)(CC1)[C@@H](O)C2", "note": "[Compound 512, 2-[(1,3-benzothiazol-2-yl)oxy]-N-{(2S)-4-[2-(4-chloro-3-fluorophenoxy)acetamido]-2-hydroxybicyclo[2.2.2]octan-1-yl}acetamide]", "EC50": "> 2000"}, {"smiles": "O=C(COc1ccc(Cl)c(F)c1)NC12CCC(NC(=O)COc3ccc(Cl)c(F)c3)(CC1)[C@@H](O)[C@H]2Br", "note": "(racemic) [Compound 571, rac-N,N′-[(2S,3R)-2-bromo-3-hydroxybicyclo[2.2.2]octane-1,4-diyl]bis[2-(4-chloro-3-fluorophenoxy)acetamide]]", "EC50": "10 to 50"}, {"smiles": "O=C(COc1ccc(Cl)c(F)c1)NC12CC(NC(=O)COc3cnc(C(F)(F)F)c(Cl)c3)(C1)C2", "note": "[Compound 222, 2-(4-chloro-3-fluorophenoxy)-N-[3-(2-{[5-chloro-6-(trifluoromethyl)pyridin-3-yl]oxy}acetamido)bicyclo[1.1.1]pentan-1-yl]acetamide]", "EC50": "< 10"}, {"smiles": "O=C(COc1ccc(Cl)c(F)c1)NC12CC(NC(=O)COc3cc(F)c4cn[nH]c4c3)(C1)C2", "note": "[Compound 111, 2-(4-chloro-3-fluorophenoxy)-N-(3-{2-[(4-fluoro-1H-indazol-6-yl)oxy]acetamido}-bicyclo[1.1.1]pentan-1-yl)acetamide]", "EC50": "< 10"}, {"smiles": "O=C(COc1cccc(Cl)c1)NC12CC(NC(=O)COc3ccc(Cl)c(Cl)c3)(C1)C2", "note": "[Compound 171, 2-(3-chlorophenoxy)-N-{3-[2-(3,4-dichlorophenoxy)acetamido]-bicyclo[1.1.1]pentan-1-yl}acetamide]", "EC50": "< 10"}, {"smiles": "O=C(COc1ccc(Cl)c(Cl)c1)NC12CC(NCCOc3ccc(Cl)c(F)c3)(C1)C2", "note": "[Compound 124, N-(3-{[2-(4-chloro-3-fluorophenoxy)ethyl]amino}bicyclo[1.1.1]pentan-1-yl)-2-(3,4-dichlorophenoxy)acetamide]", "EC50": "10 to 50"}, {"smiles": "Cc1cc(C)cc(OCC(=O)NC23CCC(NC(=O)COc4ccc(Cl)c(F)c4)(CC2)[C@@H](O)C3)c1", "note": "[Compound 470, 2-(4-chloro-3-fluorophenoxy)-N-{(2S)-4-[2-(3,5-dimethylphenoxy)acetamido]-2-hydroxybicyclo[2.2.2]octan-1-yl}acetamide]", "EC50": "10 to 50"}, {"smiles": "O=C(COc1ccc(Cl)c(F)c1)NC12CC(NC(=O)COc3ccc(C(F)(F)F)cn3)(C1)C2", "note": "[Compound 214, 2-(4-chloro-3-fluorophenoxy)-N-[3-(2-{[5-(trifluoromethyl)pyridin-2-yl]oxy}acetamido)bicyclo[1.1.1]pentan-1-yl]acetamide]", "EC50": "50 to 250"}, {"smiles": "CC(C)(Oc1ccc(Cl)cc1)C(=O)NC12CCC(NC(=O)COc3ccc(Cl)c(F)c3)(CC1)C[C@@H]2O", "note": "[Compound 453, N-{(2S)-4-[2-(4-chloro-3-fluorophenoxy)acetamido]-2-hydroxybicyclo[2.2.2]octan-1-yl}-2-(4-chlorophenoxy)-2-methylpropanamide]", "EC50": "10 to 50"}, {"smiles": "O=C(COc1ccc(Cl)c(F)c1)NC12CCC(NC(=O)COc3ccc(F)cc3)(CC1)[C@H](O)C2", "note": "(single isomer, unassigned) [Compound 353]", "EC50": "< 10"}, {"smiles": "O=C(COc1ccc(Cl)c(F)c1)NC12CC(NC(=O)COc3ccc(Cl)c(Cl)c3)(C1)C2", "note": "[Compound 121, 2-(4-chloro-3-fluorophenoxy)-N-{3-[2-(3,4-dichlorophenoxy)acetamido]-bicyclo[1.1.1]pentan-1-yl}acetamide]", "EC50": "< 10"}, {"smiles": "O=C(COc1ccc(Cl)c(F)c1)NC12CCC(NC(=O)COc3ccc(Cl)nn3)(CC1)[C@@H](O)C2", "note": "[Compound 518, 2-(4-chloro-3-fluorophenoxy)-N-[(3S)-4-{2-[(6-chloropyridazin-3-yl)oxy]acetamido}-3-hydroxybicyclo[2.2.2]octan-1-yl]acetamide]", "EC50": "10 to 50"}, {"smiles": "CC(C)c1ccc(OCC(=O)NC23CC(NC(=O)COc4ccc(Cl)c(F)c4)(C2)C3)cn1", "note": "[Compound 248, 2-(4-chloro-3-fluorophenoxy)-N-[3-(2-{[6-(propan-2-yl)pyridin-3-yl]oxy}acetamido)bicyclo[1.1.1]pentan-1-yl]acetamide]", "EC50": "50 to 250"}, {"smiles": "N#Cc1ccc(COCC(=O)NC23CC(NC(=O)COc4ccc(Cl)c(Cl)c4)(C2)C3)cc1", "note": "[Compound 159, 2-[(4-cyanophenyl)methoxy]-N-{3-[2-(3,4-dichlorophenoxy)acetamido]-bicyclo[1.1.1]pentan-1-yl}acetamide]", "EC50": "50 to 250"}, {"smiles": "O=C(COc1ccc(Cl)c(F)c1)NC12CCC(NC(=O)COc3ccc(C(F)F)cc3)(CC1)[C@@H](O)C2", "note": "[Compound 537, 2-(4-chloro-3-fluorophenoxy)-N-[(3S)-4-{2-[4-(difluoromethyl)phenoxy]acetamido}-3-hydroxybicyclo[2.2.2]octan-1-yl]acetamide]", "EC50": "< 10"}, {"smiles": "O=C(COCCc1ccc(Cl)cc1)NC12CC(NC(=O)COc3ccc(Cl)c(Cl)c3)(C1)C2", "note": "[Compound 155, 2-[2-(4-chlorophenyl)ethoxy]-N-{3-[2-(3,4-dichlorophenoxy)acetamido]bicyclo-[1.1.1]pentan-1-yl}acetamide]", "EC50": "10 to 50"}, {"smiles": "O=C(/C=C/c1ccc(C(F)(F)F)nc1)NC12CC(NC(=O)COc3ccc(Cl)c(F)c3)(C1)C2", "note": "[Compound 351, (2E)-N-{3-[2-(4-chloro-3-fluorophenoxy)acetamido]bicyclo[1.1.1]pentan-1-yl}-3-[6-(trifluoromethyl)pyridin-3-yl]prop-2-enamide]", "EC50": "250 to 500"}, {"smiles": "O=C(COc1ccc(Cl)c(Cl)c1)NC12CC(NC(=O)COc3ccc(Cl)c(Cl)c3)(C1)C2", "note": "[Compound 106, N,N′-(bicyclo[1.1.1]pentane-1,3-diyl)bis[2-(3,4-dichlorophenoxy)acetamide]]", "EC50": "< 10"}, {"smiles": "CC(=O)N(CC(=O)NC12CC(NC(=O)COc3ccc(Cl)c(F)c3)(C1)C2)c1ccc(Cl)cc1", "note": "[Compound 205, M-acetyl-N-{3-[2-(4-chloro-3-fluorophenoxy)acetamido]bicyclo-[1.1.1]pentan-1-yl}-N^2-(4-chlorophenyl)glycinamide]", "EC50": "> 2000"}, {"smiles": "O=C(COc1ccc(Cl)c(F)c1)N[C@]12CC[C@](NC(=O)COc3ccc(Cl)c(F)c3)(C1)[C@@H](O)C2", "note": "(racemic) [Compound 585, rac-N,N′-[(1S,2S,4R)-2-hydroxybicyclo[2.2.1]heptane-1,4-diyl]bis[2-(4-chloro-3-fluorophenoxy)acetamide]]", "EC50": "< 10"}, {"smiles": "O=C(COc1ccc(Cl)c(F)c1)NC12CCC(NC(=O)COc3ccc(C(F)(F)F)nc3)(CC1)C(F)C2", "note": "(single isomer, unassigned) [Compound 372]", "EC50": "50 to 250"}, {"smiles": "O=C(COc1ccc(Cl)c(F)c1)NC12CC(NC(=O)Cc3ccccc3)(C1)C2", "note": "[Compound 446, 2-(4-chloro-3-fluorophenoxy)-N-[3-(2-phenylacetamido)bicyclo[1.1.1]pentan-1-yl]acetamide]", "EC50": "> 2000"}, {"smiles": "O=C(COc1ccc(Cl)c(F)c1)NC12CCC(NC(=O)COc3ccc(OC(F)F)c(F)c3)(CC1)[C@@H](O)C2", "note": "[Compound 802, 2-(4-chloro-3-fluorophenoxy)-N-[(3S)-4-{2-[4-(difluoromethoxy)-3-fluorophenoxy]acetamido}-3-hydroxybicyclo[2.2.2]octan-1-yl]acetamide]", "EC50": "< 10"}, {"smiles": "O=C(COc1ccc(Cl)c(F)c1)NC12CCC(NC(=O)COc3cc(-c4ccccc4)n(-c4ccccc4)n3)(CC1)[C@@H](O)C2", "note": "[Compound 513, 2-(4-chloro-3-fluorophenoxy)-N-[(3S)-4-{2-[(1,5-diphenyl-1H-pyrazol-3-yl)oxy]acetamido}-3-hydroxybicyclo[2.2.2]octan-1-yl]acetamide]", "EC50": "> 2000"}, {"smiles": "O=C(COc1ccc(Cl)c(F)c1)NC12CC(NS(=O)(=O)CCOc3ccc(F)cc3)(C1)C2", "note": "[Compound 489, 2-(4-chloro-3-fluorophenoxy)-N-(3-{[2-(4-fluorophenoxy)ethanesulfonyl]amino}bicyclo[1.1.1]pentan-1-yl)acetamide]", "EC50": "500 to 2000"}, {"smiles": "O=C(COc1ccc(F)c(F)c1)NC12CC(NC(=O)COc3ccc(Cl)c(Cl)c3)(C1)C2", "note": "[Compound 584, 2-(3,4-dichlorophenoxy)-N-{3-[2-(3,4-difluorophenoxy)acetamido]bicyclo[1.1.1]pentan-1-yl}acetamide]", "EC50": "< 10"}, {"smiles": "O=C(COc1ccc(Cl)c(F)c1)NC12CCC(NC(=O)COc3cccc(C(F)(F)F)c3)(CC1)[C@@H](O)C2", "note": "[Compound 501, 2-(4-chloro-3-fluorophenoxy)-N-[(3S)-3-hydroxy-4-{2-[3-(trifluoromethyl)phenoxy]acetamido}bicyclo[2.2.2]octan-1-yl]acetamide]", "EC50": "< 10"}, {"smiles": "O=C(COc1ccc(OC(F)(F)F)c(F)c1)NC12CCC(NC(=O)COc3ccc4c(c3)OC(F)(F)O4)(CC1)[C@@H](O)C2", "note": "[Compound 760, 2-[(2,2-difluoro-2H-1,3-benzodioxol-5-yl)oxy]-N-[(2S)-4-{2-[3-fluoro-4-(trifluoromethoxy)phenoxy]acetamido}-2-hydroxybicyclo[2.2.2]octan-1-yl]acetamide]", "EC50": "< 10"}, {"smiles": "O=C(COc1ccc2c(c1)OC(F)(F)O2)NC12CC(NC(=O)COc3ccc4c(c3)OC(F)(F)O4)(C1)C2", "note": "[Compound 274, N,N′-(bicyclo[1.1.1]pentane-1,3-diyl)bis{2-[(2,2-difluoro-2H-1,3-benzodioxol-5-yl)oxy]acetamide}]", "EC50": "< 10"}]}]}
